In ChEMBL document CHEMBL3792383, “C-cinnamoyl glycosides as a new class of anti-filarial agents” (Eur J Med Chem, 2016):
≈ marks a conversion by molar mass, not a printed value. Calls of active or inactive are those of the source. The rule behind the calls is not given here.

What was measured:
Setaria cervi [1] = experiment: Antifilarial activity against microfilaria of Setaria cervi assessed as inhibition of relative movability after 24 hrs by microscopy; assay type: functional, organism-based
Setaria cervi [2] = experiment: Antifilarial activity against microfilaria of Setaria cervi assessed as inhibition of worm viability after 24 hrs by MTT assay; assay type: functional
Wuchereria bancrofti = experiment: Antifilarial activity against microfilaria of Wuchereria bancrofti assessed as reduction in worm viability at 18 nM after 24 hrs by MTT assay; assay type: functional
[3] = Cytotoxicity against human normal kidney epithelial cells after 24 hrs by MTT assay; assay type: cell-based, Epithelial cell
[4] = Selectivity index, ratio of CC50 for human normal kidney epithelial cells to IC50 for microfilaria of Setaria cervi; assay type: functional, Epithelial cell
Setaria cervi [5] = experiment: Potency index, ratio of ivermectin LC50 to compound LC50 for microfilaria of Setaria cervi by MTT assay; assay type: functional
[6] = Antifilarial activity against microfilaria of Wuchereria bancrofti assessed as inhibition of relative movability after 24 hrs by microscopy; assay type: functional
Setaria cervi [7] = experiment: Induction of apoptosis in microfilaria of Setaria cervi assessed as DNA fragmentation after 24 hrs by propidium iodide staining-based inverted fluorescence microscopy; assay type: functional, organism-based
Setaria cervi [8] = experiment: Induction of apoptosis in microfilaria of Setaria cervi assessed as DNA fragmentation after 24 hrs by Hoechst 33342 staining-based fluorescence microscopy; assay type: functional, organism-based
Setaria cervi [9] = experiment: Induction of apoptosis in microfilaria of Setaria cervi assessed as chromatin condensation after 24 hrs by Hoechst 33342 staining-based fluorescence microscopy; assay type: functional, organism-based
Setaria cervi [10] = experiment: Induction of cuticular sheath damage in microfilaria of Setaria cervi after 24 hrs by scanning electron microscopy; assay type: functional, organism-based
Setaria cervi [11] = experiment: Induction of apoptosis in microfilaria of Setaria cervi assessed as chromatin condensation after 24 hrs by propidium iodide staining-based inverted fluorescence microscopy; assay type: functional, organism-based

Molecule	IC50 (Setaria cervi [1]; Setaria cervi, 24 h) [nM]	MIC (Setaria cervi [1]; Setaria cervi, 24 h) [µM]	LC50 (Setaria cervi [2]) [nM]	also measured
CC(=O)OC[C@H]1O[C@@H](CC(=O)/C=C/c2ccco2)[C@H](OC(C)=O)[C@@H](OC(C)=O)[C@@H]1OC(C)=O	46.6	0.0153 (≈ 7.12 ng/mL)	163	–
IVERMECTIN [listing 1 of 2 here]	–	–	53.6	MIC (Setaria cervi [1]): 0.00743 µM; Activity (Wuchereria bancrofti): 17.6%
COc1cccc(/C=C/C(=O)C[C@@H]2O[C@H](COC(C)=O)[C@@H](OC(C)=O)[C@H](OC(C)=O)[C@H]2OC(C)=O)c1	> 900	> 0.9	> 900	–
CCOc1ccc(/C=C/C(=O)C[C@@H]2O[C@H](COC(C)=O)[C@@H](OC(C)=O)[C@H](OC(C)=O)[C@H]2OC(C)=O)cc1	51.4	0.0279 (≈ 14.5 ng/mL)	76.8	–
CC(=O)OC[C@H]1O[C@@H](CC(=O)/C=C/c2cccnc2)[C@H](OC(C)=O)[C@@H](OC(C)=O)[C@@H]1OC(C)=O	7.64	0.00377 (≈ 1.8 ng/mL)	26.7	CC50 at 24 h [3]: 4.17 nM; Ratio CC50/IC50 [4]: 0.56
CC(=O)OC[C@H]1O[C@@H](CC(=O)/C=C/c2ccc(C(F)(F)F)cc2)[C@H](OC(C)=O)[C@@H](OC(C)=O)[C@@H]1OC(C)=O	6.89	0.0034 (≈ 1.85 ng/mL)	24.6	RatioLC50 (Setaria cervi [5]): 3.5; CC50 at 24 h [3]: 102 nM; Ratio CC50/IC50 [4]: 14.87; IC50 [6]: 8.96 nM; MIC [6]: 0.0044 µM (≈ 2.4 ng/mL); inhibition [6]: Dose-dependent effect; Activity (Wuchereria bancrofti): 40.6%; Activity (Setaria cervi [7]): Active; Activity (Setaria cervi [8]): Active; Activity (Setaria cervi [9]): Active; Activity (Setaria cervi [10]): Active; Activity (Setaria cervi [11]): Active
CC(=O)OC[C@H]1O[C@@H](CC(=O)/C=C/c2cc(Cl)cc(Cl)c2)[C@H](OC(C)=O)[C@@H](OC(C)=O)[C@@H]1OC(C)=O	7.52	0.00532 (≈ 2.9 ng/mL)	15.8	RatioLC50 (Setaria cervi [5]): 5.4; CC50 at 24 h [3]: 32.9 nM; Ratio CC50/IC50 [4]: 4.94; IC50 [6]: 9.33 nM; MIC [6]: 0.00476 µM (≈ 2.6 ng/mL); inhibition [6]: Dose-dependent effect; Activity (Wuchereria bancrofti): 73.1%; Activity (Setaria cervi [7]): Active; Activity (Setaria cervi [8]): Active; Activity (Setaria cervi [9]): Active; Activity (Setaria cervi [10]): inactive; Activity (Setaria cervi [11]): Active
CC(=O)OC[C@H]1O[C@@H](CC(=O)/C=C/c2cccs2)[C@H](OC(C)=O)[C@@H](OC(C)=O)[C@@H]1OC(C)=O	46.9	0.0245 (≈ 11.8 ng/mL)	257	–
CC(=O)OC[C@H]1O[C@@H](CC(=O)/C=C/c2ccc(OC(C)=O)cc2)[C@H](OC(C)=O)[C@@H](OC(C)=O)[C@@H]1OC(C)=O	119	0.0342 (≈ 18.3 ng/mL)	336	–
CC(=O)OC[C@H]1O[C@@H](CC(=O)/C=C/c2cccc3ccccc23)[C@H](OC(C)=O)[C@@H](OC(C)=O)[C@@H]1OC(C)=O	13.5	0.0117 (≈ 6.15 ng/mL)	19.4	–
COc1cc(/C=C/C(=O)C[C@@H]2O[C@H](COC(C)=O)[C@@H](OC(C)=O)[C@H](OC(C)=O)[C@H]2OC(C)=O)cc(OC)c1OC	76.4	0.0602 (≈ 34.1 ng/mL)	140	–
COc1ccc(/C=C/C(=O)C[C@@H]2O[C@H](COC(C)=O)[C@@H](OC(C)=O)[C@H](OC(C)=O)[C@H]2OC(C)=O)cc1OCc1ccccc1	250	0.123 (≈ 75.2 ng/mL)	> 900	–
CC(=O)OC[C@H]1O[C@@H](CC(=O)/C=C/c2ccc3ccccc3c2)[C@H](OC(C)=O)[C@@H](OC(C)=O)[C@@H]1OC(C)=O	> 900	> 0.9	> 900	–
COc1cc(/C=C/C(=O)C[C@@H]2O[C@H](COC(C)=O)[C@@H](OC(C)=O)[C@H](OC(C)=O)[C@H]2OC(C)=O)ccc1O	185	0.0722 (≈ 37.7 ng/mL)	500	–
CC(=O)OC[C@H]1O[C@@H](CC(=O)/C=C/c2cccc([N+](=O)[O-])c2)[C@H](OC(C)=O)[C@@H](OC(C)=O)[C@@H]1OC(C)=O	11.3	0.00594 (≈ 3.1 ng/mL)	29	CC50 at 24 h [3]: 15.4 nM; Ratio CC50/IC50 [4]: 1.44
COc1ccc(/C=C/C(=O)C[C@@H]2O[C@H](COC(C)=O)[C@@H](OC(C)=O)[C@H](OC(C)=O)[C@H]2OC(C)=O)cc1	41.6	0.0207 (≈ 10.5 ng/mL)	142	–
CC(=O)OC[C@H]1O[C@@H](CC(=O)/C=C/c2ccccc2)[C@H](OC(C)=O)[C@@H](OC(C)=O)[C@@H]1OC(C)=O	38.8	0.0206 (≈ 9.8 ng/mL)	108	–
CC(=O)OC[C@H]1O[C@@H](CC(=O)/C=C/c2ccc([N+](=O)[O-])s2)[C@H](OC(C)=O)[C@@H](OC(C)=O)[C@@H]1OC(C)=O	21.3	0.0106 (≈ 5.6 ng/mL)	47.5	–
CC(=O)OC[C@H]1O[C@@H](CC(=O)/C=C/c2ccc(O)cc2)[C@H](OC(C)=O)[C@@H](OC(C)=O)[C@@H]1OC(C)=O	> 900	> 0.9	> 900	–
COc1ccccc1/C=C/C(=O)C[C@@H]1O[C@H](COC(C)=O)[C@@H](OC(C)=O)[C@H](OC(C)=O)[C@H]1OC(C)=O	68.9	0.0351 (≈ 17.8 ng/mL)	256	–
COc1ccc(/C=C/C(=O)C[C@@H]2O[C@H](COC(C)=O)[C@@H](OC(C)=O)[C@H](OC(C)=O)[C@H]2OC(C)=O)cc1OC	81.4	0.0629 (≈ 33.7 ng/mL)	274	–
IVERMECTIN [listing 2 of 2 here]	–	–	–	IC50 (Setaria cervi [1]): 19.5 nM
CC(=O)OC[C@H]1O[C@@H](CC(=O)/C=C/c2ccc(N(C)C)cc2)[C@H](OC(C)=O)[C@@H](OC(C)=O)[C@@H]1OC(C)=O	226	0.113 (≈ 58.9 ng/mL)	886	–
CC(=O)OC[C@H]1O[C@@H](CC(=O)/C=C/c2ccc(OCc3ccccc3)cc2)[C@H](OC(C)=O)[C@@H](OC(C)=O)[C@@H]1OC(C)=O	348	0.263 (≈ 153 ng/mL)	> 900	–
CC(=O)OC[C@H]1O[C@@H](CC(=O)/C=C/c2ccc([N+](=O)[O-])cc2)[C@H](OC(C)=O)[C@@H](OC(C)=O)[C@@H]1OC(C)=O	23.9	0.0111 (≈ 5.8 ng/mL)	71.2	–
CC(=O)OC[C@H]1O[C@@H](CC(=O)/C=C/c2ccc(C)cc2)[C@H](OC(C)=O)[C@@H](OC(C)=O)[C@@H]1OC(C)=O	13.6	0.00581 (≈ 2.85 ng/mL)	42.2	CC50 at 24 h [3]: 3.18 nM; Ratio CC50/IC50 [4]: 0.24
CC(=O)OC[C@H]1O[C@@H](CC(=O)/C=C/c2ccc(Cl)c(Cl)c2)[C@H](OC(C)=O)[C@@H](OC(C)=O)[C@@H]1OC(C)=O	6.97	0.00458 (≈ 2.5 ng/mL)	13.2	RatioLC50 (Setaria cervi [5]): 6.5; CC50 at 24 h [3]: 25.8 nM; Ratio CC50/IC50 [4]: 3.97; IC50 [6]: 6.77 nM; MIC [6]: 0.00458 µM (≈ 2.5 ng/mL); inhibition [6]: Dose-dependent effect; Activity (Wuchereria bancrofti): 81.09%; Activity (Setaria cervi [7]): Active; Activity (Setaria cervi [8]): Active; Activity (Setaria cervi [9]): Active; Activity (Setaria cervi [10]): Active; Activity (Setaria cervi [11]): Active
CC(=O)OC[C@H]1O[C@@H](CC(=O)/C=C/c2ccc(Cl)cc2)[C@H](OC(C)=O)[C@@H](OC(C)=O)[C@@H]1OC(C)=O	26.6	0.0167 (≈ 8.54 ng/mL)	51.9	–
CC(=O)OC[C@H]1O[C@@H](CC(=O)/C=C/c2cc(Cl)cc(Cl)c2O)[C@H](OC(C)=O)[C@@H](OC(C)=O)[C@@H]1OC(C)=O	17.7	0.00919 (≈ 5.16 ng/mL)	44.4	–
